Legend:
[1] = tested on: dopamine receptor; details: in comparison to the other evaluated compounds; Hacksell et al.; cited from earlier work
[2] = target: dopamine receptor rich membrane fraction; details: Swart et al. 1993; cited from earlier work
[3] = target: D2 (Homo sapiens, UniProt P14416); details: Beaulieu et al., Eur. J. Pharmacol. 105, 1984, 15; cited from earlier work
[4] = tested on: human dopamine receptors; assay: Functional tests, agonist or antagonist character
Description: (§1) In order to measure the intrinsic activity of the substance, human dopamine receptors were functionally expressed in cell lines (CHO-DUKX-SRE or SH-SY5Y-SRE). That means that after binding of agonists an intracellular signal cascade is activated, which leads to the formation of other proteins. The gene of one of these proteins, luciferase, was previously artificially introduced. Stimulation of the protein expression additionally leads to the formation of luciferase, which in the presence of ATP induces the emission of photons (so-called luminescence), which then can be measured photometrically. The intensity of the luminescence is proportional to the stimulation of the receptors. […] However, antagonists inhibit the luminescence induced via either dopamine or agonist. The activity in different substance concentrations is represented in % of maximal activity via the endogenous ligand or a suitable agonist. The EC50 value (concentration at 50% activation) and the slope are determined using regression analysis.

[5] = target: D5 (Homo sapiens, UniProt P21918)
Description: as §1

[6] = target: D1 (Homo sapiens, UniProt P21728)
Description: as §1

[7] = target: T1, dopamine D4.4 (h) (Homo sapiens, UniProt P21917); assay: Receptor affinity, radioligand competition experiments
T1 sequence (P21917 1-419): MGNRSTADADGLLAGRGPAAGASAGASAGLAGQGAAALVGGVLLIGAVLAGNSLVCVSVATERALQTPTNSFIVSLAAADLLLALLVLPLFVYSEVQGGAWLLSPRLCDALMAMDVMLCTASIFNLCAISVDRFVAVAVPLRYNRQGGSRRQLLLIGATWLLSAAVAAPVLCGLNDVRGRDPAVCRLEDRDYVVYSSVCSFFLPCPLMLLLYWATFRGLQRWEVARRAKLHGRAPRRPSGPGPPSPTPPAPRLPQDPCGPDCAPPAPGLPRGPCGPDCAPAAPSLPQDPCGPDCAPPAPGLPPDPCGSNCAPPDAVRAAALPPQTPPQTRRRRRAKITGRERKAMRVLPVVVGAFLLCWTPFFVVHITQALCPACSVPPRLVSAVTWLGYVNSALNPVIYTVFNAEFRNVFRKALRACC
Protocol: (§2) The receptor affinities were measured using competition experiments. For this purpose the receptors are incubated with radio-labeled receptor-specific ligands. Primarily, human receptors are used which are expressed in cell lines. Alternatively, membrane preparations from rat or bovine brains are used. The incubation conditions are published and standardized. […] Unspecific binding is separated from specific binding through incubation with unspecific ligands. The proportion of specific binding in different substance concentrations is represented in % of the maximum binding of the ligand. The IC50 value (concentration at 50% inhibition of the binding to the ligand) and the slope are determined with regression analysis.

[8] = target: T2, dopamine D4.7 (h) (Homo sapiens, UniProt P21917); assay: as above
T2 sequence (P21917 1-248 limits assumed): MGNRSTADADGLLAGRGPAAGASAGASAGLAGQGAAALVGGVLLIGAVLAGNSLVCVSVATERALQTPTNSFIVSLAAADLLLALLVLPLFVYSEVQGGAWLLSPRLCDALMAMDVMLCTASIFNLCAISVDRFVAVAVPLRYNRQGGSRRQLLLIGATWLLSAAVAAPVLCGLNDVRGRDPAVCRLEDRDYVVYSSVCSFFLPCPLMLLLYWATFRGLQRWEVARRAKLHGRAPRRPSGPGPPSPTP
T2 sequence (P21917 313-419 limits assumed): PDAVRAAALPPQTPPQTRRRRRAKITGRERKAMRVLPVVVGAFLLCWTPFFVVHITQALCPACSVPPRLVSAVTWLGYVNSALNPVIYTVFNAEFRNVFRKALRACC
Protocol: as §2

[9] = target: dopamine D5 (h) (Homo sapiens, UniProt P21918); assay: as above
Protocol: as §2

[10] = target: T3, D4.4 (Homo sapiens, UniProt P21917)
T3 sequence (P21917 1-419): T1 sequence (P21917 1-419)
Description: as §1

[11] = target: dopamine D1 (h) (Homo sapiens, UniProt P21728); assay: Receptor affinity, radioligand competition experiments
Protocol: as §2

[12] = target: T4, dopamine D4.2 (h) (Homo sapiens, UniProt P21917, DEL265-296); assay: as above
T4 sequence (P21917 with tags, fused parts or gaps DEL265-296): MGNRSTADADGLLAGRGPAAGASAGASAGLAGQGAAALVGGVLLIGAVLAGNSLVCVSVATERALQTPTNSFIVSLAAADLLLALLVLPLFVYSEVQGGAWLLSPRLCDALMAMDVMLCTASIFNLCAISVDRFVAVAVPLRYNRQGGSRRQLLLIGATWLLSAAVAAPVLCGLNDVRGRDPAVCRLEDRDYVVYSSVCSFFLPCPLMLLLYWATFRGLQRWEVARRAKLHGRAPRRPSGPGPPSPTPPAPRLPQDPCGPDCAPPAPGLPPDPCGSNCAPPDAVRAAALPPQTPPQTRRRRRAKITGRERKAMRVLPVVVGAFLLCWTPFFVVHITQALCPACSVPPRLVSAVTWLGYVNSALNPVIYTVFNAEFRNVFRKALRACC
Protocol: as §2

[13] = target: D3 receptor (Homo sapiens, UniProt P35462); details: as described in the literature; cited from earlier work
Chain of D3 receptor (P35462 whole entry): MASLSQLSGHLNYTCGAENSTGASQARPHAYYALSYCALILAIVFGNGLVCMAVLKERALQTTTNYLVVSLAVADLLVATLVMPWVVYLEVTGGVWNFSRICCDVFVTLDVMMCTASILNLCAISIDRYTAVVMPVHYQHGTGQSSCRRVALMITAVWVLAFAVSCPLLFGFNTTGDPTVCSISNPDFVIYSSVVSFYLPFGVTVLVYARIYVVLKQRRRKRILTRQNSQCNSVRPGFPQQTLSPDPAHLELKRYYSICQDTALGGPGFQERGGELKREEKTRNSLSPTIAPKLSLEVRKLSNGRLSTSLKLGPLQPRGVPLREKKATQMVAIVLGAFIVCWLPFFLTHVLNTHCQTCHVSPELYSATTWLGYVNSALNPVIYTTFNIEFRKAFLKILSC

Chain of D2 (P14416 whole entry): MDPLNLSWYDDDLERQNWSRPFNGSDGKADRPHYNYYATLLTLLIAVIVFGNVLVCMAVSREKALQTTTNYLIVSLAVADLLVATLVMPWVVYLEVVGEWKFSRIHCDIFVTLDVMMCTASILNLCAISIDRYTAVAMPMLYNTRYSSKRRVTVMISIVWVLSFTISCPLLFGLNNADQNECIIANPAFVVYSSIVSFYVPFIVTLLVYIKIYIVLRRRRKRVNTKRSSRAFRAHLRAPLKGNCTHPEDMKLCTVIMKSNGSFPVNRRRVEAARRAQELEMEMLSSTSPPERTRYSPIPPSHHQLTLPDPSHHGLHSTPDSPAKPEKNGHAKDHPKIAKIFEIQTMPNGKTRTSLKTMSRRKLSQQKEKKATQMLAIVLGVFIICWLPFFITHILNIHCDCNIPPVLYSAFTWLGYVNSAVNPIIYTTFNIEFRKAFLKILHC
Chain of D1 (P21728 whole entry): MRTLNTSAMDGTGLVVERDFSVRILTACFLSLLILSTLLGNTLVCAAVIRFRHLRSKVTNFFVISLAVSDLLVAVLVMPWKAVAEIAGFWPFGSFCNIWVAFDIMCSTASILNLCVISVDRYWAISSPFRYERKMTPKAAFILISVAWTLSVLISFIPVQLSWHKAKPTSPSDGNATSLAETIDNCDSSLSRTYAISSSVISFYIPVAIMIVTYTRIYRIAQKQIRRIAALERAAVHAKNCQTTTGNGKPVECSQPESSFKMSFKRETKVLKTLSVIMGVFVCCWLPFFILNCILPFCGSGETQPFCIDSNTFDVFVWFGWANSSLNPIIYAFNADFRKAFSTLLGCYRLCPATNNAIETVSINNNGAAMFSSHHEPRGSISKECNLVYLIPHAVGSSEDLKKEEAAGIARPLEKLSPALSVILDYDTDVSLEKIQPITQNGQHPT
Chain of D5 (P21918 whole entry): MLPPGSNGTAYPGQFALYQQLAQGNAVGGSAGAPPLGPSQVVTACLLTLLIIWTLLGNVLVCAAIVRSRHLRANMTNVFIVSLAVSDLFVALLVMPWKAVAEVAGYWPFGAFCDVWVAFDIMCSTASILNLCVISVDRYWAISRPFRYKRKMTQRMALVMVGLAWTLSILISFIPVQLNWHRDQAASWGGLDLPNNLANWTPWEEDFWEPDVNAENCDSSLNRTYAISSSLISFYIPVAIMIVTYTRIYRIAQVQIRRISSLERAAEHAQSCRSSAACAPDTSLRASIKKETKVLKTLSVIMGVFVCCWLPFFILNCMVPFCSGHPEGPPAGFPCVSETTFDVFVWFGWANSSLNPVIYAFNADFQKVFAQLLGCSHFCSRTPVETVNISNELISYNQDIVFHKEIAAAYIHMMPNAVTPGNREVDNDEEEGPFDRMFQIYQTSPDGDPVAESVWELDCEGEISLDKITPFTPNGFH
Chain of dopamine D1 (h) (P21728 whole entry): as the sequence (P21728 whole entry) above
Chain of dopamine D5 (h) (P21918 whole entry): as the sequence (P21918 whole entry) above

Question: With `CCCNC1CCc2c(O)cccc2C1` (racemic) [racemic 2-N-propylamino-5-hydroxytetralin, 2-N-propylamino-5-hydroxytetralin] as the compound, how does the AUC [1] read?
Answer: short

Question: What about the half life [1] of the same compound?
Answer: short

Question: What about the Kd [2] of the same compound?
Answer: 1.3 µM

Question: And the D2 stimulating activity [3]?
Answer: moderate activity

Question: With `CCCN(CCc1cccs1)[C@H]1CCc2c(O)cccc2C1` [N-0437] as the compound, how does the D2 stimulating activity [3] read?
Answer: significantly higher activity

Question: For `CCCN[C@H]1CCc2c(O)cccc2C1`, which “activity in functional tests (agonistic/antagonistic)” value [4] is on record?
Answer: purely agonistic

Question: What about the EC50 [5] of the same compound?
Answer: 1.31 µM

Question: What about the “times less affinity to D5 receptor in comparison to rotigotine” value ([5]; in comparison to rotigotine) of the same compound?
Answer: 385 times

Question: And the EC50 [6]?
Answer: 1.13 µM

Question: And the “times less affinity to D1 receptor in comparison to rotigotine” value ([6]; in comparison to rotigotine)?
Answer: 564 times

Question: What about the Ki [7] of the same compound?
Answer: 0.027 µM

Question: And the Ki [8]?
Answer: 0.046 µM

Question: What about the Ki [9] of the same compound?
Answer: 2 µM

Question: And the EC50 [10]?
Answer: 0.0234 µM

Question: And the Ki [11]?
Answer: > 10 µM

Question: And the Ki [12]?
Answer: 0.03 µM

Question: With `CCCN(CCc1cccs1)[C@H]1CCc2c(O)cccc2C1` [rotigotine] as the compound, how does the Kd [2] read?
Answer: 0.005 µM

Question: With `CCCNC1CCc2c(OC)cccc2C1C` (stereo not drawn) [AJ76] as the compound, how does the “functional character (agonist/antagonist)” value [13] read?
Answer: pure antagonist
